IC50 and inhibition data for 56 compounds are collected here from ChEMBL document CHEMBL4402579, “Identification of Potent In Vivo Autotaxin Inhibitors that Bind to Both Hydrophobic Pockets and Channels in the Catalytic Domain” (J Med Chem, 2020).

Active and inactive are the calls of the source. The calls are words filed in the database; no cut-off is given here.

Usually IC50 stands for the midpoint of a concentration-inhibition curve. Usually inhibition stands for the relative decrease from the control value, in per cent.

For test [1], the target named is Autotaxin (Mus musculus, UniProt Q9R1E6). The test is described as follows: Inhibition of ATX in mouse plasma after 2 hrs by LC-MS/MS analysis. The class given is cell-free.
Test [2] addresses Autotaxin (Mus musculus) (UniProt Q9R1E6). The test is described as follows: Inhibition of ATX in mouse plasma assessed as reduction in LPA prodution at 10 uM after 3 hrs by LC-MS/MS analysis. The class given is cell-free.
The target is the same in test [3]. The test is described as follows: Inhibition of ATX in mouse plasma assessed as reduction in LPA prodution after 3 hrs by LC-MS/MS analysis. In kind it is cell-free.
The target is the same in test [4]. Kind of test: Inhibition of mouse ATX expressed in one-cell stage zebra fish embryos assessed as rescue of cardia bifida phenotype at 10 uM incubated for 12 to 24 hrs post fertilization in presence of Ki16425 by whole mount in situ hybridization based microscopic analysis relative to control.
Test [5] is filed under the species Danio rerio. The test is described as follows: Inhibition of AB/TU zebra fish ATX expressed in one-cell stage zebra fish embryos assessed as rescue of carida bifida phenotype at 10 uM incubated for 12 to 24 hrs post fertilization in presence of Ki16425 by whole mount in situ hybridization based microscopic analysis relative to control.
Test [6] deals with T1, Autotaxin (Homo sapiens, UniProt Q13822). Kind of test: Inhibition of ATX (unknown origin)-mediated cell migration in human MDA-MB-231 cells assessed as reduction in cell motility after 3 hrs by Diff-Quick staining based microplate reader analysis.
For test [7], the system named is Mus musculus. The test is described as follows: In vivo inhibition of ATX in C57BL/6J mouse assessed as reduction in serum LPA level at 4 mg/kg, iv after 15 mins to 3 hrs by LC-MS/MS analysis. In kind it is functional, organism-based.
Test [8] has as its target T1, Autotaxin. The test is described as follows: Inhibition of ATX (unknown origin) expressed in human HEK293 cells using TG-mTMP as substrate after 2 hrs by fluorescence based plate reader assay.

With `Cc1cc(O)n2cc(-c3ccccc3)nc2n1`, the 50% inhibitory concentration (IC50) in test [1] (read-out: IC50) was more than 50000 nM. Also, in test [2], the inhibition result is “inactive”.

Take `Cc1cc(O)n2cc(-c3ccc(Cl)cc3)nc2n1`: in test [1] (read-out: IC50), the IC50 was more than 50000 nM. Further, the inhibition entry in test [2] is “inactive”.

Consider `COc1cc(C)nc2nc(-c3ccc(Cl)cc3)cn12`, for which the 50% inhibitory concentration (IC50) in test [1] (read-out: IC50) was more than 50000 nM.

For the compound `Cc1cc(=O)n2cc(-c3ccc(Cl)cc3)nc2n1CCS(=O)(=O)O`, the half-maximal inhibitory concentration (IC50) in test [1] (read-out: IC50) is more than 50000 nM.

Turning to `Cc1cc(=O)n2cc(-c3ccc(Cl)cc3)nc2n1C`, the IC50 in test [1] (read-out: IC50) was found to be 180 nM.

Turning to `Cc1cc(=O)n2cc(-c3ccc(Cl)cc3)nc2n1CC(=O)OCc1ccccc1`, the half-inhibitory concentration (IC50) in test [1] (read-out: IC50) amounted to 56 nM. Besides, the inhibition result in test [2] is “inactive”.

As to `CCCCCCCCCCCCCCCC(=O)n1c(C)cc(=O)n2cc(-c3ccc(Cl)cc3)nc12`, the IC50 entry in test [1] is on record as “Nd(Insoluble)”.

For the compound `Cc1cc(O)n2cc(-c3cccc(Br)c3)nc2n1`, in test [1] (read-out: IC50), the half-inhibitory concentration (IC50) is more than 50000 nM. For the same compound, the inhibition entry in test [2] is “inactive”.

On to `CCCCCCCn1c(C)cc(=O)n2cc(-c3ccc(Cl)cc3)nc12`, for which the IC50 in test [1] (read-out: IC50) stood at 16 nM. Besides, the inhibition entry in test [2] is “Active”.

For the compound `Cc1cc(O)n2cc(-c3ccc(Cl)c(Cl)c3)nc2n1`, in test [1] (read-out: IC50), the IC50 is more than 50000 nM. For the same compound, the inhibition entry in test [2] is “inactive”.

Take `CCCCCn1c(C)cc(=O)n2cc(-c3ccc(Br)cc3)nc12`: in test [1] (read-out: IC50), the IC50 worked out at 23 nM. In addition, the inhibition entry in test [2] is “Active”. In addition, in test [3], the inhibition result is “Dose-dependent effect”.

Regarding `Cc1cc(=O)n2cc(-c3ccc(Cl)cc3)nc2n1CC(=O)OC(C)(C)C`, the IC50 in test [1] (read-out: IC50) is 90 nM. Further, in test [2], the inhibition result is “inactive”.

On to `CCCCCCCN/C=C1\C(=O)N(c2ccc(F)cc2)C(=O)N=C1O`, for which the inhibition in test [4] was 94%; in test [5] it was 1%.

On to `CCCCCn1c(C)cc(=O)n2cc(-c3ccc(F)cc3)nc12`, for which the IC50 in test [1] (read-out: IC50) is 71 nM. Also, the inhibition result in test [2] was “Active”.

As for `CCCCCCn1c(C)cc(=O)n2cc(-c3ccc(Cl)cc3)nc12`, the IC50 in test [1] (read-out: IC50) was found to be 9.9 nM. For the same compound, the inhibition result in test [2] and in test [7] was “Active” in each case. In addition, the inhibition entry in test [3] and in test [6] was “Dose-dependent effect” throughout.

On to `CCOC(=O)Cn1c(C)cc(=O)n2cc(-c3ccc(OC)cc3)nc12`, for which, in test [1] (read-out: IC50), the 50% inhibitory concentration (IC50) came out at 49 nM. For the same compound, the inhibition result in test [2] is “inactive”.

Consider `CCOCCn1c(C)cc(=O)n2cc(-c3ccc(Cl)cc3)nc12`, for which the IC50 in test [1] (read-out: IC50) is 11 nM. In addition, the inhibition result in test [2] is “Active”.

For the compound `CCCCn1c(C)cc(=O)n2cc(-c3ccc(Cl)cc3)nc12`, the IC50 in test [1] (read-out: IC50) was 15 nM. Besides, the inhibition result in test [2] was “Active”.

For the compound `Cc1ccc(-c2cn3c(O)cc(C)nc3n2)cc1`, the IC50 in test [1] (read-out: IC50) was more than 50000 nM. Further, the inhibition result in test [2] was “inactive”.

As for `Cc1cc(O)n2cc(-c3ccc(Br)cc3)nc2n1`, in test [1] (read-out: IC50), the half-maximal inhibitory concentration (IC50) was more than 50000 nM. In test [2], the inhibition entry was “inactive”.

In the case of `Cc1nc2ccccn2c(=O)c1Cc1ccc(Cl)cc1`, the inhibition in test [4] was found to be 91%; in test [5] it was 6%.

Consider `CCOC(=O)Cn1c(C)cc(=O)n2cc(-c3ccccc3)nc12`, for which the IC50 in test [1] (read-out: IC50) came out at 72 nM.

Regarding `CCN(C)C(=O)Cn1c(C)cc(=O)n2cc(-c3ccc(Cl)cc3)nc12`, the concentration for half-maximal inhibition (IC50) in test [1] (read-out: IC50) came out at 220 nM.

Consider `Cc1cc(O)n2cc(-c3ccc([N+](=O)[O-])cc3)nc2n1`, for which the 50% inhibitory concentration (IC50) in test [1] (read-out: IC50) was more than 50000 nM. In addition, the inhibition entry in test [2] was “inactive”.

Regarding `Cc1cc(=O)n2cc(-c3ccc(Cl)cc3)nc2n1CC[N+](C)(C)C`, in test [1] (read-out: IC50), the IC50 is more than 50000 nM.

In the case of `CCOC(=O)Cn1c(C)cc(=O)n2cc(-c3ccc(I)cc3)nc12`, the IC50 in test [1] (read-out: IC50) was found to be 19 nM.

As to `CCn1c(C)cc(=O)n2cc(-c3ccc(Cl)cc3)nc12`, the IC50 in test [1] (read-out: IC50) was 40 nM.

Turning to `COc1ccc(-c2cn3c(O)cc(C)nc3n2)cc1`, the IC50 in test [1] (read-out: IC50) was more than 50000 nM. For the same compound, the inhibition result in test [2] was “inactive”.

Take `Cc1cc(=O)n2cc(-c3ccc(Cl)cc3)nc2n1Cc1ccccc1`: the 50% inhibitory concentration (IC50) in test [1] (read-out: IC50) amounted to 31 nM. Moreover, the inhibition result in test [2] was “Active”.

In the case of `CC(=O)OCn1c(C)cc(=O)n2cc(-c3ccc(Cl)cc3)nc12`, the IC50 in test [1] (read-out: IC50) stood at 30 nM.

`CCOC(=O)Cn1c(C)cc(=O)n2cc(-c3ccc(Cl)c(Cl)c3)nc12`: the IC50 in test [1] (read-out: IC50) amounted to 79 nM.

In the case of `CCOC(=O)Cn1c(C)cc(=O)n2cc(-c3cccc(Br)c3)nc12`, the IC50 in test [1] (read-out: IC50) was 4000 nM.

As to `O=C1N=C(N2CCN(Cc3cccc(B(O)O)c3)CC2)S/C1=C\c1ccc(Cl)c(Cl)c1`, in test [8], it took 13 nM to reach half-maximal inhibition (IC50). In test [4], the inhibition was determined as 98%.

With `COC(=O)Cn1c(C)cc(=O)n2cc(-c3ccc(Cl)cc3)nc12`, the IC50 in test [1] (read-out: IC50) was determined as 26 nM. For the same compound, in test [2], the inhibition result is “inactive”.

`CCCCCn1c(C)cc(=O)n2cc(-c3ccc(C)cc3)nc12`: the IC50 in test [1] (read-out: IC50) stood at 44 nM. For the same compound, the inhibition entry in test [2] was “Active”.

With `Cc1cc(O)n2cc(-c3ccc(F)cc3)nc2n1`, in test [1] (read-out: IC50), the IC50 is more than 50000 nM. In test [2], the inhibition entry is “inactive”.

For `CCCCCCCCCn1c(C)cc(=O)n2cc(-c3ccc(Cl)cc3)nc12`, in test [1] (read-out: IC50), the IC50 worked out at 120 nM.

In the case of `Cc1cc(=O)n2cc(-c3ccc(Cl)cc3)nc2n1CC(=O)O`, in test [1] (read-out: IC50), the half-maximal inhibitory concentration (IC50) was 7700 nM. Further, the inhibition result in test [2] is “inactive”.

With `CCOC(=O)Cn1c(C)cc(=O)n2cc(-c3ccc(N)cc3)nc12`, the IC50 in test [1] (read-out: IC50) is more than 10000 nM.

For `CCOC(=O)Cn1c(C)cc(=O)n2cc(-c3cccc([N+](=O)[O-])c3)nc12`, the half-inhibitory concentration (IC50) in test [1] (read-out: IC50) is 500 nM.

With `CCCn1c(C)cc(=O)n2cc(-c3ccc(Cl)cc3)nc12`, the concentration for half-maximal inhibition (IC50) in test [1] (read-out: IC50) was found to be 21 nM.

Turning to `CCOC(=O)Cn1c(C)cc(=O)n2cc(-c3ccc([N+](=O)[O-])cc3)nc12`, the IC50 in test [1] (read-out: IC50) is 14 nM.

Regarding `CCN1CCN(C2=NC(=O)/C(=C/c3ccc(Cl)cc3)S2)CC1`, the inhibition in test [4] is 95%; in test [5], 10%.

For the compound `CCOC(=O)Cn1c(C)cc(=O)n2cc(-c3ccc(Br)cc3)nc12`, the IC50 in test [1] (read-out: IC50) came to 13 nM. Besides, the inhibition entry in test [2] is “inactive”.

For the compound `CCOC(=O)Cn1c(C)cc(=O)n2cc(-c3ccc(Cl)cc3)nc12`, the values for the IC50 in test [8] and in test [1] (read-out: IC50) were 4.2 nM and 3.3 nM, respectively. In addition, the inhibition in test [4] amounted to 93%; in test [5], 8%. Moreover, in test [2], the inhibition result was “inactive”.

`CCOC(=O)Cn1c(C)cc(=O)n2cc(-c3cccc(N)c3)nc12`: the half-inhibitory concentration (IC50) in test [1] (read-out: IC50) is more than 10000 nM.

`CN1CCN(C2=NC(=O)/C(=C/c3ccc(Cl)c(Cl)c3)S2)CC1` displayed an IC50 in test [8] of 180 nM. For the same compound, the inhibition in test [4] turned out to be 96%; in test [5], 3%.

Turning to `CCNC(=O)Cn1c(C)cc(=O)n2cc(-c3ccc(Cl)cc3)nc12`, the half-maximal inhibitory concentration (IC50) in test [1] (read-out: IC50) was found to be 370 nM. Besides, the inhibition entry in test [2] is “inactive”.

Take `Cc1cc(Cl)n2cc(-c3ccc(Cl)cc3)nc2n1`: the IC50 in test [1] (read-out: IC50) is more than 50000 nM.

Turning to `CCOC(=O)Cn1c(C)cc(=O)n2cc(-c3ccc(F)cc3)nc12`, the half-inhibitory concentration (IC50) in test [1] (read-out: IC50) stood at 31 nM. In addition, in test [2], the inhibition entry is “inactive”.

On to `Cc1cc(O)n2cc(-c3cccc([N+](=O)[O-])c3)nc2n1`, for which the IC50 in test [1] (read-out: IC50) is more than 50000 nM. Besides, the inhibition entry in test [2] is “inactive”.

As for `CCC(=O)Cn1c(C)cc(=O)n2cc(-c3ccc(Cl)cc3)nc12`, the half-inhibitory concentration (IC50) in test [1] (read-out: IC50) came to 37 nM. Moreover, the inhibition result in test [2] is “Active”.

With `Cc1cc(=O)n2cc(-c3ccc(Cl)cc3)nc2n1C1CCCCC1`, in test [1] (read-out: IC50), the IC50 came out at 73 nM. For the same compound, the inhibition entry in test [2] is “Active”.

For the compound `CCCCCn1c(C)cc(=O)n2cc(-c3ccc(Cl)cc3)nc12`, in test [1] (read-out: IC50), the concentration for half-maximal inhibition (IC50) turned out to be 9.4 nM. In addition, the inhibition entry in test [2] and in test [7] was “Active” in each case. Further, in test [3], the inhibition entry is “Dose-dependent effect”.

Regarding `CCCCCCCCn1c(C)cc(=O)n2cc(-c3ccc(Cl)cc3)nc12`, the IC50 in test [1] (read-out: IC50) was determined as 57 nM.

For the compound `CCCCCCCCCC(=O)n1c(C)cc(=O)n2cc(-c3ccc(Cl)cc3)nc12`, the 50% inhibitory concentration (IC50) in test [1] (read-out: IC50) was 160 nM.
